Assays:
Format in all cases: cell-based
[1] = test system: SH-SY5Y (human neuroblastoma) cells; assay: Cell viability, Cell Titer Glo 2.0 assay; settings: read-out: Viability SHSY5Y.3 GI50
Method in brief: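 CellTiter-Glo 2.0 luminescence read-out after 72 h compound exposure (37 °C, 5% CO2); medium-only wells as blank. DMSO 0.1% final.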

[2] = test system: HTT mRNA; assay: Splicing RT-qPCR assay (THP), Table 2A; settings: Table 2A, THP; for AC50: HTT alternative junction (AJ) mRNA, read-out: HTT AJ (AC50, increase in alternative junction mRNA); for IC50: HTT canonical junction (CJ) mRNA, read-out: HTT CJ (IC50, decrease in canonical junction mRNA)
[3] = test system: MYB mRNA; assay: Splicing RT-qPCR assay (THP), Table 2A; settings: Table 2A, THP; for AC50: MYB alternative junction (AJ) mRNA, read-out: MYB AJ (AC50, increase in alternative junction mRNA); for IC50: MYB canonical junction (CJ) mRNA, read-out: MYB CJ (IC50, decrease in canonical junction mRNA)
[4] = test system: MYB mRNA; assay: Gene panel canonical junction qPCR assay, decrease in CJ mRNA, Table 3; settings: decrease in CJ mRNA levels, canonical junction qPCR, gene panel
Method in brief: (§1)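 Cells: A673 or K562; 24 h compound exposure, 37 °C, 5% CO2; 11-pt 3-fold series from 10 uM final; DMSO ≤0.25%. Lysate → cDNA → qPCR with junction-spanning primers/probe for CJ transcript. ΔCt vs housekeeper, ΔΔCt vs DMSO, 2^(−ΔΔCt), % response, 4PL → IC50.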

[5] = test system: HTT mRNA; assay: as above; settings: decrease in CJ mRNA levels, canonical junction qPCR, gene panel
Method in brief: as §1

| SMILES | GI50 [1] [µM] | AC50 [2] [µM] | IC50 [2] [µM] | AC50 [3] [µM] | IC50 [3] [µM] | IC50 [4] [µM] | IC50 [5] [µM] |
| --- | --- | --- | --- | --- | --- | --- | --- |
| Cc1cn2cc(NC(=O)c3ccc(N4CCNCC4)c4c3OCO4)cc(F)c2n1 [Compound 642, N-(8-fluoro-2-methyl-imidazo[1,2-a]pyridin-6-yl)-7-piperazin-1-yl-1,3-benzodioxole-4-carboxamide] | 1 to 10 | 1 to 10 | 1 to 10 | 1 to 10 | 1 to 10 | 1 to 10 | 1 to 10 |
| Cc1cn2cc(NC(=O)c3ccc(N4C[C@@H](C)N[C@@H](C)C4)c4c3OCO4)cc(F)c2n1 [Compound 643, 7-[(3S,5R)-3,5-dimethylpiperazin-1-yl]-N-(8-fluoro-2-methyl-imidazo[1,2-a]pyridin-6-yl)-1,3-benzodioxole-4-carboxamide] | 1 to 10 | 1 to 10 | 1 to 10 | 0.1 to 1 | 0.1 to 1 | 0.1 to 1 | 1 to 10 |
| Cc1cn2cc(NC(=O)c3ccc(N4CCC(NC5CC5)CC4)c4c3OCO4)cc(F)c2n1 [Compound 648, 7-[4-(cyclopropylamino)-1-piperidyl]-N-(8-fluoro-2-methyl-imidazo[1,2-a]pyridin-6-yl)-1,3-benzodioxole-4-carboxamide] | > 10 | > 10 | > 10 | 1 to 10 | 1 to 10 | 1 to 10 | > 10 |
| Cc1cn2cc(NC(=O)c3ccc(N4CCC(NC5CC5)C4)c4c3OCO4)cc(F)c2n1 (stereo not shown) [Compound 649, 7-[3-(cyclopropylamino)-pyrrolidin-1-yl]-N-(8-fluoro-2-methyl-imidazo[1,2-a]pyridin-6-yl)-1,3-benzodioxole-4-carboxamide] | 1 to 10 | > 10 | > 10 | 0.1 to 1 | 1 to 10 | 1 to 10 | > 10 |
| COc1c(NC(=O)c2ccc(N3CCC(NC4CC4)CC3)c3c2OCO3)cn2cc(C)nc2c1F [Compound 650, 7-[4-(cyclopropylamino)-1-piperidyl]-N-(8-fluoro-7-methoxy-2-methyl-imidazo[1,2-a]pyridin-6-yl)-1,3-benzodioxole-4-carboxamide] | 0.1 to 1 | 0.1 to 1 | < 0.1 | < 0.1 | < 0.1 | < 0.1 | < 0.1 |
| Cc1cn2cc(NC(=O)c3ccc(N4C[C@@H](C)N[C@@H](C)C4)c4c3OC(F)(F)O4)cc(F)c2n1 [Compound 651, 7-[(3R,5S)-3,5-dimethylpiperazin-1-yl]-2,2-difluoro-N-(8-fluoro-2-methylimidazo[1,2-a]-pyridin-6-yl)-1,3-benzodioxole-4-carboxamide] | > 10 | > 10 | > 10 | > 10 | > 10 | > 10 | > 10 |
| Cc1cn2cc(NC(=O)c3ccc(N4C[C@@H](C)N[C@@H](C)C4)c4c3OC(C)(C)O4)cc(F)c2n1 [Compound 656, 7-[(3S,5R)-3,5-dimethylpiperazin-1-yl]-N-(8-fluoro-2-methyl-imidazo[1,2-a]-pyridin-6-yl)-2,2-dimethyl-1,3-benzodioxole-4-carboxamide] | > 10 | > 10 | > 10 | > 10 | > 10 | > 10 | > 10 |
| COc1cc2nn(C)cc2cc1NC(=O)c1c(F)cc(N2CCC(NC3CC3)CC2)c2nc(C)sc12 [Compound 661, 4-[4-(cyclopropyl-amino)-1-piperidyl]-6-fluoro-N-(6-methoxy-2-methyl-indazol-5-yl)-2-methyl-1,3-benzothiazole-7-carboxamide] | 1 to 10 | 1 to 10 | 1 to 10 | 1 to 10 | 1 to 10 | 1 to 10 | 1 to 10 |
| Cc1cn2cc(NC(=O)c3c(F)cc(N4CCC(NC5CC5)CC4)c4nc(C)sc34)cc(F)c2n1 [Compound 662, 4-[4-(cyclopropyl-amino)-1-piperidyl]-6-fluoro-N-(8-fluoro-2-methyl-imidazo[1,2-a]pyridin-6-yl)-2-methyl-1,3-benzothiazole-7-carboxamide] | 1 to 10 | > 10 | > 10 | > 10 | > 10 | > 10 | > 10 |
| COc1c(NC(=O)c2c(F)cc(N3CCC(NC4CC4)CC3)c3nc(C)sc23)cn2cc(C)nc2c1F [Compound 663, 4-[4-(cyclopropylamino)-1-piperidyl]-6-fluoro-N-(8-fluoro-7-methoxy-2-methyl-imidazo[1,2-a]-pyridin-6-yl)-2-methyl-1,3-benzothiazole-7-carboxamide] | 1 to 10 | 1 to 10 | 1 to 10 | 1 to 10 | 1 to 10 | 1 to 10 | 1 to 10 |
| COc1nc(NC(=O)c2c(F)cc(N3CCC(NC4CC4)CC3)c3nc(C)sc23)cn2cc(C)nc12 [Compound 664, 4-[4-(cyclopropylamino)-1-piperidyl]-6-fluoro-N-(8-methoxy-2-methylimidazo-[1,2-a]pyrazin-6-yl)-2-methyl-1,3-benzothiazole-7-carboxamide] | 1 to 10 | 1 to 10 | 1 to 10 | 1 to 10 | 1 to 10 | 1 to 10 | 1 to 10 |
| Cc1cn2nc(NC(=O)c3c(F)cc(N4CCC(NC5CC5)CC4)c4nc(C)sc34)cc(C)c2n1 [Compound 665, 4-[4-(cyclopropyl-amino)-1-piperidyl]-N-(2,8-dimethylimidazo[1,2-b]-pyridazin-6-yl)-6-fluoro-2-methyl-1,3-benzothiazole-7-carboxamide] | 0.1 to 1 | 0.1 to 1 | 0.1 to 1 | 0.1 to 1 | 0.1 to 1 | 0.1 to 1 | 0.1 to 1 |
| COc1nc2c(N3CCC(NC4CC4)CC3)ccc(C(=O)Nc3cc(F)c4nc(C)cn4c3)c2o1 [Compound 666, 4-[4-(cyclopropylamino)-1-piperidyl]-N-(8-fluoro-2-methyl-imidazo[1,2-a]-pyridin-6-yl)-2-methoxy-1,3-benzoxazole-7-carboxamide] | 1 to 10 | 1 to 10 | 1 to 10 | 0.1 to 1 | 0.1 to 1 | 0.1 to 1 | 1 to 10 |
| COc1nc2c(C(=O)Nc3cn4cc(C)nc(C)c4n3)ccc(N3CCC(NC4CC4)CC3)c2s1 [Compound 667, 7-(4-(cyclopropylamino)-piperidin-1-yl)-N-(6,8-dimethylimidazo[1,2-a]pyrazin-2-yl)-2-methoxy-benzo[d]thiazole-4-carboxamide 2,2,2-trifluoroacetate] | 1 to 10 | > 10 | > 10 | 1 to 10 | > 10 | > 10 | > 10 |
| COc1nc2c(C(=O)Nc3cc4cn(C)nc4cc3OC)ccc(N3CCC(NC4CC4)CC3)c2s1 [Compound 668, 7-(4-(cyclopropylamino)-piperidin-1-yl)-2-methoxy-N-(6-methoxy-2-methyl-2H-indazol-5-yl)benzo[d]-thiazole-4-carboxamide 2,2,2-trifluoroacetate] | 0.1 to 1 | 1 to 10 | 1 to 10 | 0.1 to 1 | 0.1 to 1 | 0.1 to 1 | 1 to 10 |
| CCNC1CCN(c2ccc(C(=O)Nc3cc4cn(C)nc4cc3OC)c3nc(OC)sc23)CC1 [Compound 669, 7-[4-(ethylamino)-1-piperidyl]-2-methoxy-N-(6-methoxy-2-methyl-indazol-5-yl)-1,3-benzo-thiazole-4-carboxamide] | 1 to 10 | 1 to 10 | 1 to 10 | 0.1 to 1 | 1 to 10 | 1 to 10 | 1 to 10 |
| CCNC1CCN(c2ccc(C(=O)Nc3cn4cc(C)nc(C)c4n3)c3nc(OC)sc23)CC1 [Compound 670, N-(6,8-dimethyl-imidazo[1,2-a]-pyrazin-2-yl)-7-[4-(ethylamino)-1-piperidyl]-2-methoxy-1,3-benzothiazole-4-carboxamide] | > 10 | > 10 | 1 to 10 | > 10 | > 10 | > 10 | 1 to 10 |
| COc1nc2c(C(=O)Nc3cc4cn(C)nc4cc3OC)ccc(N3C[C@H](C)N[C@@H](C)C3)c2s1 [Compound 671, 7-[(3S,5S)-3,5-dimethyl-piperazin-1-yl]-2-methoxy-N-(6-methoxy-2-methyl-indazol-5-yl)-1,3-benzothiazole-4-carboxamide] | 1 to 10 | 1 to 10 | > 10 | 0.1 to 1 | 0.1 to 1 | 0.1 to 1 | > 10 |
| COc1nc2c(C(=O)Nc3cc(F)c4nn(C)cc4c3)ccc(N3C[C@H](C)N[C@@H](C)C3)c2s1 [Compound 675, 7-[(3S,5S)-3,5-dimethylpiperazin-1-yl]-N-(7-fluoro-2-methyl-indazol-5-yl)-2-methoxy-1,3-benzothiazole-4-carboxamide] | < 0.1 | < 0.1 | < 0.1 | < 0.1 | < 0.1 | < 0.1 | < 0.1 |

From patent US20260285853A1, “COMPOUNDS AND METHODS FOR MODULATING SPLICING” (REMIX THERAPEUTICS INC., priority 2023, published 2026)
